Earlier results, collected in publication PMC3705364, “Biochemical and Electrophysiological Characterization of Two Sea Anemone Type 1 Potassium Toxins from a Geographically Distant Population of Bunodosoma caissarum” (Marine Drugs, 2013).

Test system: KV1.2
Details: expressed in Xenopus oocytes; cited from earlier work
Experimental: The pharmacological profile of BcsTx-1 and -2 were determined on a wide range of twelve KV channels (rKV1.1, rKV1.2, hKV1.3, rKV1.4, rKV1.5, rKV1.6, rKV2.1, rKV3.1, rKV4.2, rKV4.3, hERG and the insect channel Shaker IR; r: rat and h: human). Channels were expressed in X. laevis oocytes, and their currents were recorded by using two-electrode voltage-clamp technique. BcsTx1 (0.5 µM) inh ... || In order to characterize the potency and selectivity profile, concentration-response curves were constructed for BcsTx1. […] A concentration-response curve was also constructed to determine the concentration at which BcsTx2 blocked half of the channels.

AsKs: type 1 toxin from Anemonia viridis / Anemonia sulcata (Swiss-Prot Q9TWG1) (ACKDNFAAATCKHVKENKNCGSQKYATNCAKTCGKC; UniProt Q9TWG1 1-36, looked up)
block of KV1.2 current (in words): blocker of KV1.2 current
